Legend:
[1] = test system: normal human neonatal foreskin epidermal keratinocytes (NHEK-F); test: Cell proliferation inhibition test; format: cell-based; details: Keratinocyte, 72 h, NHEK-F cells, three days incubation, ATPlite or CellTiterGlo, read-out: IC50 (concentration of the compound at which the cell count is reduced by 50%)
How it was run: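 NHEK-F keratinocytes, 2×10^3 per well in Humedia-EG2, plated overnight, then exposed to compound for three days. Cell count by ATPlite or CellTiterGlo luminescence; inhibition = 100 − (treated/untreated count)×100, IC50 as 50% reduction concentration.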

[2] = test system: TPA-induced ear edema and acanthosis in Balb/c mice; test: Mouse TPA-induced ear-swelling model; format: in vivo; details: topical, 240 h, 1% w/v solution, 20 μL applied to ear once a day from day 0 to day 9, female Balb/c mice, read-out: Inhibition rate of change in ear thickness on day 10
Protocol: Seven-week-old female Balb/c mice (Charles River Laboratories Japan) were used. 20 μL of a 20 ng/mL solution of TPA (Wako Pure Chemical Industries, 162-23591) dissolved in 5% DMSO/acetone was applied to the outer side of the mouse ear on day 0, day 2, day 4, day 7 and day 9 to induce ear edema and acanthosis. The test compound was dissolved in a 5% DMSO/acetone solution (concentration: 1% w/v) and 20 μL of the resulting solution was applied to the outer side of the ear once a day from day 0 to day 9. For the control group, a 5% DMSO/acetone solution was similarly applied. The TPA solution and the test compound solution were mixed and applied on the days for TPA application (day 0, day 2, day 4, day 7 and day 9). The ear thickness was chronologically measured on days 0-4 and days 7-10 using a micrometer (Mitutoyo, MDC-25MJT). The change in ear thickness and the inhibition rate were determined by the following formulas. Change in ear thickness=(ear thickness measured on day 10)−(ear thickness measured on day 0 before TPA application) Inhibition rate (%)=100−(change in ear thickness for test compound group/change in ear thickness for control group)×100

SMILES | IC50 [1] [nM] | inhibition in vivo at 1 % strength [2] [%]
CC(C)Cn1ccc2cc(Nc3ncc(C4CC4)cc3C(=O)O)ccc21 [Example 126, 2-((1-isobutyl-1H-indol-5-yl)amino)-5-cyclopropylnicotinic acid] | ≤ 10 | ≥ 20
O=C(O)c1cc(C2CCCC2)cnc1Nc1ccc2c(ccn2Cc2ccccc2)c1 [Example 128, 2-((1-benzyl-1H-indol-5-yl)amino)-5-cyclopentylnicotinic acid] | – | ≥ 20
O=C(O)c1cc(C2CC2)cnc1Nc1ccc2c(ccn2CC2CCCCC2)c1 [Example 130, 2-((1-(cyclohexylmethyl)-1H-indol-5-yl)amino)-5-cyclopropylnicotinic acid] | ≤ 10 | ≥ 20
O=C(O)c1cc(C2CC2)cnc1Nc1ccc2c(ccn2CC2CCC2)c1 [Example 133, 2-((1-(cyclobutylmethyl)-1H-indol-5-yl)amino)-5-cyclopropylnicotinic acid] | ≤ 10 | ≥ 20
O=C(O)c1cc(C2CC2)cnc1Nc1ccc2c(ccn2CC2CCCC2)c1 [Example 138, 2-((1-(cyclopentylmethyl)-1H-indol-5-yl)amino)-5-cyclopropylnicotinic acid] | ≤ 10 | ≥ 20
CCn1c(-c2ccccc2)cc2cc(Nc3ncc(C4CC4)cc3C(=O)O)ccc21 [Example 142, 5-cyclopropyl-2-((1-ethyl-2-phenyl-1H-indol-5-yl)amino)nicotinic acid] | 10 to 100 | ≥ 20
CS(=O)(=O)NC(=O)c1cc(C2CC2)cnc1Nc1ccc2c(ccn2Cc2ccccc2)c1 [Example 149, 2-((1-benzyl-1H-indol-5-yl)amino)-5-cyclopropyl-N-(methylsulfonyl)nicotinamide] | 10 to 100 | ≥ 20
Cn1cc(-c2ccccc2)c2cc(Nc3ncc(C4CC4)cc3C(=O)O)ccc21 [Example 153] | 10 to 100 | ≥ 20
Cn1ccc2cc(Nc3ncc(C4CC4)cc3C(=O)O)cc(-c3cccc(-c4ccccc4)c3)c21 [Example 189, 2-((7-([1,1′-biphenyl]-3-yl)-1-methyl-1H-indol-5-yl)amino)-5-cyclopropylnicotinic acid] | ≤ 10 | ≥ 20
Cc1ccc(Nc2ccc3c(ccn3Cc3ccccc3)c2)c(C(=O)O)c1 [Example 206, 2-((1-benzyl-1H-indol-5-yl)amino)-5-methylbenzoic acid] | ≤ 10 | ≥ 20
O=C(O)c1cc(C2CC2)cnc1Nc1cccc2c1ccn2Cc1ccccc1 [Example 208, 2-((1-benzyl-1H-indol-4-yl)amino)-5-cyclopropylnicotinic acid] | 10 to 100 | ≥ 20
Cn1ccc2cc(Nc3ncc(C4CC4)cc3C(=O)O)cc(-c3ccccc3)c21 [Example 222, 5-cyclopropyl-2-((1-methyl-7-phenyl-1H-indol-5-yl)amino)nicotinic acid] | ≤ 10 | ≥ 20
CC(C)Cn1ccc2cc(Nc3ncc(C4CC4)cc3C(=O)O)cc(-c3ccccc3)c21 [Example 224, 5-cyclopropyl-2-((1-isobutyl-7-phenyl-1H-indol-5-0)amino)nicotinic acid] | ≤ 10 | ≥ 20
O=C(O)c1cc(C2CC2)cnc1Nc1ccc2c(ccn2-c2ccc(F)cc2)c1 [Example 233, 5-cyclopropyl-2-((1-(4-fluorophenyl)-1H-indol-5-yl)amino)nicotinic acid] | ≤ 10 | ≥ 20
COc1cccc(Cn2ccc3cc(Nc4ncc(C5CC5)cc4C(=O)O)ccc32)c1 [Example 237, 5-cyclopropyl-2-((1-(3-methoxybenzyl)-1H-indol-5-yl)amino)nicotinic acid] | 10 to 100 | ≥ 20
O=C(O)c1cc(C2CC2)cnc1Nc1ccc2c(ccn2Cc2cccc(F)c2)c1 [Example 239, 5-cyclopropyl-2-((1-(3-fluorobenzyl)-1H-indol-5-yl)amino)nicotinic acid] | ≤ 10 | ≥ 20
O=C(O)c1cc(C2CC2)cnc1Nc1ccc2c(ccn2Cc2ccc(F)cc2)c1 [Example 241, 5-cyclopropyl-2-((1-(4-fluorobenzyl)-1H-indol-5-yl)amino)nicotinic acid] | ≤ 10 | ≥ 20
CC(C)c1cc(Nc2ncc(C3CC3)cc2C(=O)O)cc2ccn(C)c12 [Example 411, 5-cyclopropyl-2-((7-isopropyl-1-methyl-1H-indol-5-yl)amino)nicotinic acid] | 10 to 100 | ≥ 20
O=C(O)c1cc(C2CC2)cnc1Nc1cccc2c1ccn2CC1CCC1 [Example 439, 2-((1-(cyclobutylmethyl)-1H-indol-4-yl)amino)-5-cyclopropylnicotinic acid] | ≤ 10 | ≥ 20
COc1ccc(Cn2ccc3cc(Nc4ncc(C5CC5)cc4C(=O)O)ccc32)cc1 [Example 623, 5-cyclopropyl-2-((1-(4-methoxybenzyl)-1H-indol-5-yl)amino)nicotinic acid] | 10 to 100 | –
Cn1ccc2cc(Nc3ncc(Cl)cc3C(=O)O)cc(-c3ccccc3)c21 [Example 625, 5-chloro-2-((1-methyl-7-phenyl-1H-indol-5-yl)amino)nicotinic acid] | 10 to 100 | –
O=C(O)c1cc(Br)cnc1Nc1ccc2c(ccn2Cc2cccc(F)c2)c1 [Example 627, 5-bromo-2-((1-(3-fluorobenzyl)-1H-indol-5-yl)amino)nicotinic acid] | 10 to 100 | –
Cc1cc(Nc2ncc(C3CC3)cc2C(=O)O)cc2ccn(Cc3ccccc3)c12 [Example 629, 2-((1-benzyl-7-methyl-1H-indol-5-yl)amino)-5-cyclopropylnicotinic acid] | ≤ 10 | –
COC(=O)c1cc(C2CC2)cnc1Nc1ccc2c(c1)c(-c1cccc(C#N)c1)cn2C [Example 630] | 100 to 1000 | –
O=C(O)c1cc(C2CC2)cnc1Nc1ccc2c(ccn2Cc2c(F)cccc2F)c1 [Example 634, 5-cyclopropyl-2-((1-(2,6-difluorobenzyl)-1H-indol-5-yl)amino)nicotinic acid] | ≤ 10 | –
CCCn1ccc2cc(Nc3ncc(C4CC4)cc3C(=O)O)ccc21 [Example 636, 5-cyclopropyl-2-((1-propyl-1H-indol-5-yl)amino)nicotinic acid] | 10 to 100 | –
CCCCCCCn1ccc2cc(Nc3ncc(C4CC4)cc3C(=O)O)ccc21 [Example 640, 5-cyclopropyl-2-((1-heptyl-1H-indol-5-yl)amino)nicotinic acid] | 10 to 100 | –
O=C(O)c1cc(C2CC2)cnc1Nc1ccc2c(ccn2Cc2cc(F)c(F)cc2F)c1 [Example 643, 5-cyclopropyl-2-((1-(2,4,5-trifluorobenzyl)-1H-indol-5-yl)amino)nicotinic acid] | ≤ 10 | –
O=C(O)c1cc(Cl)cnc1Nc1ccc2c(ccn2Cc2cccc(F)c2)c1 [Example 645, 5-chloro-2-((1-(3-fluorobenzyl)-1H-indol-5-yl)amino)nicotinic acid] | 10 to 100 | –
Cn1cc(-c2ccccc2)c2cc(Nc3ncc(Cl)cc3C(=O)O)ccc21 [Example 647, 5-chloro-2-((1-methyl-3-phenyl-1H-indol-5-yl)amino)nicotinic acid] | 10 to 100 | –

Reference: US9624215B2, “Amine derivative or salt thereof” (TOYAMA CHEMICAL CO., LTD., priority 2012, dated 2017)
